SMILES strings stand for the structures.

The conditions of data set [1]: commercial UV absorbers; cited from earlier work.
A short description of data set [2]: Photo-degradation study of cream formulations under UV lamp, 200 h. Format: physicochemical. Particulars: Cream Example VII (without copolymer of Example II). How it is done:
Example VII is a cream formulation with OMC and Avobenzone is exposed for 200 h using UV light from a UV lamp.

Experiment in data set [3]: as above
Format: physicochemical. The settings on record: Cream of Example VIII (10% copolymer of Example II).

The nature of data set [4]: UV absorption (E1%cm, extinction, λmax) by absorption spectrophotometer. The settings on record: for E1%cm: at λmax 310 nm. Format: physicochemical. How it is done:
(§1) p-Methoxy cinnamido propyl dimethyl amine was obtained from Galaxy Surfactants Ltd., Mumbai. Vinyl benzyl chloride was purchased from Seimi Chemical Co., Ltd. Japan. N, N-Diethyl acrylamide was obtained from Sigma Aldrich, India. N-isoproyl acrylamide was synthesized as per the literature procedure (Polym. J., Vol. 25, No. 6, pp. 561-567). Surface tension was measured on Kruss tensiometer by Wilhelmy plate method. Intrinsic viscosity was measured by Ubbelohde viscometer. NMR spectroscopy was done on 400 MHz Bruker machine. Infrared spectra were recorded on FTIR from Perkin Elmer (Spectrum 100). UV Varian's, Cary 50 absorption spectrophotometer was used for UV absorption data.

A short description of data set [5]: Surface tension, Kruss tensiometer, Wilhelmy plate method. Format: physicochemical. How it is done:
as §1

Consider `COc1ccc(C(=O)CC(=O)c2ccc(C(C)(C)C)cc2)cc1` [Avobenzone], for which the λmax in data set [1] is recorded as 360 nm. Also, in data set [2], the “Component content, UV exposure 200 h” value turned out to be 0.1%; the “Component content, Unexposed” value was determined as 2.0%; the “Component content, Zero h” value is listed as 2.0%. Moreover, in data set [3], the “Component content, UV exposure 200 h” value is on record as 1.5%; the “Component content, Unexposed” value turned out to be 2.0%; the “Component content, Zero h” value is given as 2.0%.

For the compound `COc1ccc(C=CC(=O)NCCCN(C)C)cc1` [Formula IIa, p-methoxy cinnamidopropyl dimethyl amine], the molar extinction coefficient in data set [4] (at 290 nm) is 24,000.

As to `C=Cc1ccc(C[N+](C)(C)CCCNC(=O)/C=C/c2ccc(OC)cc2)cc1` [Formula IVa, p-methoxy cinnamido propyl p-vinyl benzyl dimethyl ammonium chloride], the “Surface tension of 1% aqueous solution” value in data set [5] is on record as 42.6 mN/m. Moreover, the E1%cm came to 568 in data set [4] and 463 in data set [4] (listed as Step (a) of Example I).

For the compound `CCCCC(CC)COC(=O)C=Cc1ccc(OC)cc1` (stereo not drawn) [OMC, Octyl methoxy cinnamate], the λmax in data set [1] is listed as 302 nm. For the same compound, in data set [2], the “Component content, UV exposure 200 h” value was 2%; the “Component content, Unexposed” value came to 6.0%; the “Component content, Zero h” value came to 6%. Further, in data set [3], the “Component content, UV exposure 200 h” value is given as 4.5%; the “Component content, Unexposed” value was 6.0%; the “Component content, Zero h” value stood at 6.0%.

These data come from patent publication US11332564B2, “Method to produce stimuli sensitive UV absorbing polymers” (GALAXY SURFACTANTS LTD, priority 2020, dated 2022).
